System: 883617-216-R-J1-PDC complex spheroid viability
Assay: Anticancer human tumor 883617-216-R-J1-PDC patient-derived bladder carcinoma cell line growth inhibition
Conditions: for IC50: curve of first compound; for viability, T/C: stronger effect = lower value
How it was run: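 Drug combinations with the LSD1 inhibitor iadademstat tested on tumor cells co-cultured as spheroids with endothelial cells and mesenchymal stem cells. Concentrations descended in half-log increments from clinical Cmax or 10 microM.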

[1] = second compound 0.1 µM, first compound 0.00316 µM
[2] = second compound 0.1 µM, first compound 0.01 µM
[3] = second compound 0.1 µM, first compound 0.0316 µM
[4] = second compound 0.1 µM, first compound 0.1 µM
[5] = second compound 0.1 µM, first compound 0.316 µM
[6] = second compound 0.1 µM, first compound 1 µM
[7] = second compound 0.316 µM, first compound 0.00316 µM
[8] = second compound 0.316 µM, first compound 0.01 µM
[9] = second compound 0.316 µM, first compound 0.0316 µM
[10] = second compound 0.316 µM, first compound 0.1 µM
[11] = second compound 0.316 µM, first compound 0.316 µM
[12] = second compound 0.316 µM, first compound 1 µM
[13] = second compound 1 µM, first compound 0.00316 µM
[14] = second compound 1 µM, first compound 0.01 µM
[15] = second compound 1 µM, first compound 0.0316 µM
[16] = second compound 1 µM, first compound 0.1 µM
[17] = second compound 1 µM, first compound 0.316 µM
[18] = second compound 1 µM, first compound 1 µM
[19] = second compound 3.16 µM, first compound 0.00316 µM
[20] = second compound 3.16 µM, first compound 0.01 µM
[21] = second compound 3.16 µM, first compound 0.0316 µM
[22] = second compound 3.16 µM, first compound 0.1 µM
[23] = second compound 3.16 µM, first compound 0.316 µM
[24] = second compound 3.16 µM, first compound 1 µM
[25] = second compound 10 µM, first compound 0.00316 µM
[26] = second compound 10 µM, first compound 0.01 µM
[27] = second compound 10 µM, first compound 0.0316 µM
[28] = second compound 10 µM, first compound 0.1 µM
[29] = second compound 10 µM, first compound 0.316 µM
[30] = second compound 10 µM, first compound 1 µM
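Further: exposure lasted seven days after three days of spheroid growth.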
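Wherever viability, T/C is given: 100% = DMSO vehicle control luminescence.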

O=C(C=Cn1cnc(-c2cc(C(F)(F)F)cc(C(F)(F)F)c2)n1)NNc1cnccn1 + NC1CC1c1ccc(-c2cccc(O)c2)cc1
IC50 (second compound 0.1 µM): 6.13 nM
IC50 (second compound 0.316 µM): 5.37 nM
IC50 (second compound 1 µM): 5.18 nM
IC50 (second compound 3.16 µM): 5.05 nM
IC50 (second compound 10 µM): 4.37 nM
viability, T/C [1]: 76.8%
viability, T/C [2]: 28.8%
viability, T/C [3]: 23.8%
viability, T/C [4]: 17.6%
viability, T/C [5]: 15.6%
viability, T/C [6]: 15.6%
viability, T/C [7]: 65.9%
viability, T/C [8]: 31.3%
viability, T/C [9]: 19.1%
viability, T/C [10]: 14.8%
viability, T/C [11]: 16%
viability, T/C [12]: 14.3%
viability, T/C [13]: 66.5%
viability, T/C [14]: 28.1%
viability, T/C [15]: 18.4%
viability, T/C [16]: 15.9%
viability, T/C [17]: 16.3%
viability, T/C [18]: 15.5%
viability, T/C [19]: 65.1%
viability, T/C [20]: 28.1%
viability, T/C [21]: 17.5%
viability, T/C [22]: 16%
viability, T/C [23]: 14.6%
viability, T/C [24]: 14.3%
viability, T/C [25]: 60%
viability, T/C [26]: 24.8%
viability, T/C [27]: 18.2%
viability, T/C [28]: 15.1%
viability, T/C [29]: 15.4%
viability, T/C [30]: 15.8%

COc1cc(C2c3cc4c(cc3C(OC3OC5COC(C)OC5C(O)C3O)C3COC(=O)C23)OCO4)cc(OC)c1O (stereo not given) + NC1CCC(NC2CC2c2ccccc2)CC1
IC50 (second compound 0.1 µM): 377 nM
IC50 (second compound 0.316 µM): 645 nM
IC50 (second compound 1 µM): 830 nM
IC50 (second compound 3.16 µM): 587 nM
IC50 (second compound 10 µM): 1750 nM
viability, T/C (second compound 0.1 µM, first compound 0.00949 µM): 96.9%
viability, T/C (second compound 0.1 µM, first compound 0.03 µM): 94.1%
viability, T/C (second compound 0.1 µM, first compound 0.0949 µM): 72.5%
viability, T/C (second compound 0.1 µM, first compound 0.3 µM): 51.6%
viability, T/C (second compound 0.1 µM, first compound 0.949 µM): 45.8%
viability, T/C (second compound 0.1 µM, first compound 3 µM): 38.3%
viability, T/C (second compound 0.316 µM, first compound 0.00949 µM): 101%
viability, T/C (second compound 0.316 µM, first compound 0.03 µM): 94%
viability, T/C (second compound 0.316 µM, first compound 0.0949 µM): 80.1%
viability, T/C (second compound 0.316 µM, first compound 0.3 µM): 51.4%
viability, T/C (second compound 0.316 µM, first compound 0.949 µM): 54%
viability, T/C (second compound 0.316 µM, first compound 3 µM): 43.4%
viability, T/C (second compound 1 µM, first compound 0.00949 µM): 104%
viability, T/C (second compound 1 µM, first compound 0.03 µM): 83%
viability, T/C (second compound 1 µM, first compound 0.0949 µM): 67.3%
viability, T/C (second compound 1 µM, first compound 0.3 µM): 56.2%
viability, T/C (second compound 1 µM, first compound 0.949 µM): 49.2%
viability, T/C (second compound 1 µM, first compound 3 µM): 44.6%
viability, T/C (second compound 3.16 µM, first compound 0.00949 µM): 106%
viability, T/C (second compound 3.16 µM, first compound 0.03 µM): 95.5%
viability, T/C (second compound 3.16 µM, first compound 0.0949 µM): 70.9%
viability, T/C (second compound 3.16 µM, first compound 0.3 µM): 53.2%
viability, T/C (second compound 3.16 µM, first compound 0.949 µM): 51.8%
viability, T/C (second compound 3.16 µM, first compound 3 µM): 41.8%
viability, T/C (second compound 10 µM, first compound 0.00949 µM): 122%
viability, T/C (second compound 10 µM, first compound 0.03 µM): 99.8%
viability, T/C (second compound 10 µM, first compound 0.0949 µM): 75.4%
viability, T/C (second compound 10 µM, first compound 0.3 µM): 60.2%
viability, T/C (second compound 10 µM, first compound 0.949 µM): 56.4%
viability, T/C (second compound 10 µM, first compound 3 µM): 45.6%

Nc1ncn(C2CC(O)C(CO)O2)c(=O)n1 (stereo not given) + NC1CCC(NC2CC2c2ccccc2)CC1
IC50 (second compound 0.1 µM): > 1000 nM
IC50 (second compound 0.316 µM): > 1000 nM
IC50 (second compound 1 µM): > 1000 nM
IC50 (second compound 3.16 µM): > 1000 nM
IC50 (second compound 10 µM): > 1000 nM
viability, T/C [1]: 109%
viability, T/C [2]: 99.4%
viability, T/C [3]: 94.7%
viability, T/C [4]: 78.1%
viability, T/C [5]: 72.6%
viability, T/C [6]: 62.4%
viability, T/C [7]: 103%
viability, T/C [8]: 115%
viability, T/C [9]: 102%
viability, T/C [10]: 89.8%
viability, T/C [11]: 79.4%
viability, T/C [12]: 67.1%
viability, T/C [13]: 103%
viability, T/C [14]: 98.8%
viability, T/C [15]: 96.7%
viability, T/C [16]: 89.6%
viability, T/C [17]: 77.7%
viability, T/C [18]: 69.6%
viability, T/C [19]: 108%
viability, T/C [20]: 100%
viability, T/C [21]: 92.4%
viability, T/C [22]: 84.8%
viability, T/C [23]: 78.6%
viability, T/C [24]: 66.9%
viability, T/C [25]: 101%
viability, T/C [26]: 106%
viability, T/C [27]: 108%
viability, T/C [28]: 92.3%
viability, T/C [29]: 93.8%
viability, T/C [30]: 77.6%
